Source: paper PMC12220852, “An adamantane‐based ligand as a novel chemical tool for thermosensory TRPM8 channel therapeutic modulation” (The Febs Journal, 2025)
“And” between values parts separate entries of the source, which are not always exact repeats. Equal values may be shown once.

Target: T1, hTRPM8 (Homo sapiens, UniProt Q7Z2W7)
T1 construct: expressed in transfected cells; host or cells: HEK293 (transient, Lipofectamine 3000)
Assay: Whole-cell patch-clamp of WS-12-evoked currents in HEK293 cells expressing hTRPM8
Assay type: cell-based
Text: We first used patch‐clamp to investigate the potency and blockade mechanism of compound 23 inhibiting WS‐12 evoked ionic currents in hTRPM8‐HEK293 cells. […] This blockade activity was reversible as virtually all WS‐12‐evoked ionic current could be recovered upon washout (Fig. 3A, bottom panel), thus preventing a use‐dependent side effect.
To unveil the underlying mechanism of channel blockade (competitive vs noncompetitive) we evaluated the effect of the α‐acyloxy carboxamide 23 on WS‐12 activating potency. For this purpose, we obtained the WS‐12 dose response in the absence and presence of 80 nM compound 23 (corresponding to its IC50 value).
For this purpose, we run 100 ms voltage ramps from −120 to 120 mV activated by WS‐12 in the absence and presence of 80 nM α‐acyloxy carboxamide 23.
Recording through patch‐clamp techniques was performed on HEK293 cells cultured in DMEM GlutaMax with 10% FBS and 1% P/S. The cell lines were authenticated following the standardization of STR Profiling guidelines (ANSI/ATCC ASN‐0002‐2022) using the CLA Identifier Plus PCR Amplification Kit (Thermo Fisher‐A44660) to analyze 16 highly variant human STRs. The cells were confirmed to be mycoplasma‐free. These cells were transiently transfected with plasmids encoding hTRPV1, hTRPM8, or hTRPA1 using Lipofectamine 3000. Transfected cells were seeded on 12 mm Ø glass coverslips treated with poly‐L‐lysine solution and recorded 2 days post‐transfection. The intracellular pipette solution included (in mM) 150 NaCl, 3 MgCl2, 5 EGTA, and 10 HEPES, pH 7.2 with CsOH, while the extracellular solution contained (in mM) 150 NaCl, 6 CsCl, 1 MgCl2, 1.5 CaCl2, 10 glucose, and 10 HEPES, pH 7.4 with NaOH. An EPC‐10 amplifier with Patchmaster software was used in whole‐cell experiments. Patch pipettes, created from thin‐wall borosilicate capillary glass tubing, were pulled with a Micropipette puller to a final resistance of 2–8 MΩ when filled with the internal solution. Recordings were acquired at 10 kHz and low‐pass filtered at 3 kHz, discarding recordings with leak currents > 200pA or series resistance > 20 MΩ. In voltage‐clamp recordings, cells were held at a constant potential, and the application of modulators was carried out using a gravity‐driven perfusion system. Total currents were normalized to the first current peak evoked by the activating stimuli. To study the effect of compound 23 on TRPM8 voltage dependence, a voltage step protocol from −120 to 120 mV was used with 100 ms steps of 20 mV from a holding potential at 0 mV. Leak currents were not subtracted, and conductance was calculated using the equation: G = I/(V − V r), where I is the measured ionic current, V is the applied voltage, and V r is the reversal potential that for the ionic conditions used was set to 0 mV.
Dose–response relationships for WS‐12 channel activation were normalized to the response of the channel to a saturating concentration of the agonist. Similarly, dose–response curves for blockade activity were normalized with respect to the response in the absence of the blocker. The experimental data were fitted to the Hill equation: Y=Bottom+Top‐Bottom/(1+10^ligand−LogIC50orLogEC50) using PRISM 9 software. Top was fixed to 100, as the unblocked response or the maximal response for WS‐12.

T1 sequence (Q7Z2W7 whole entry): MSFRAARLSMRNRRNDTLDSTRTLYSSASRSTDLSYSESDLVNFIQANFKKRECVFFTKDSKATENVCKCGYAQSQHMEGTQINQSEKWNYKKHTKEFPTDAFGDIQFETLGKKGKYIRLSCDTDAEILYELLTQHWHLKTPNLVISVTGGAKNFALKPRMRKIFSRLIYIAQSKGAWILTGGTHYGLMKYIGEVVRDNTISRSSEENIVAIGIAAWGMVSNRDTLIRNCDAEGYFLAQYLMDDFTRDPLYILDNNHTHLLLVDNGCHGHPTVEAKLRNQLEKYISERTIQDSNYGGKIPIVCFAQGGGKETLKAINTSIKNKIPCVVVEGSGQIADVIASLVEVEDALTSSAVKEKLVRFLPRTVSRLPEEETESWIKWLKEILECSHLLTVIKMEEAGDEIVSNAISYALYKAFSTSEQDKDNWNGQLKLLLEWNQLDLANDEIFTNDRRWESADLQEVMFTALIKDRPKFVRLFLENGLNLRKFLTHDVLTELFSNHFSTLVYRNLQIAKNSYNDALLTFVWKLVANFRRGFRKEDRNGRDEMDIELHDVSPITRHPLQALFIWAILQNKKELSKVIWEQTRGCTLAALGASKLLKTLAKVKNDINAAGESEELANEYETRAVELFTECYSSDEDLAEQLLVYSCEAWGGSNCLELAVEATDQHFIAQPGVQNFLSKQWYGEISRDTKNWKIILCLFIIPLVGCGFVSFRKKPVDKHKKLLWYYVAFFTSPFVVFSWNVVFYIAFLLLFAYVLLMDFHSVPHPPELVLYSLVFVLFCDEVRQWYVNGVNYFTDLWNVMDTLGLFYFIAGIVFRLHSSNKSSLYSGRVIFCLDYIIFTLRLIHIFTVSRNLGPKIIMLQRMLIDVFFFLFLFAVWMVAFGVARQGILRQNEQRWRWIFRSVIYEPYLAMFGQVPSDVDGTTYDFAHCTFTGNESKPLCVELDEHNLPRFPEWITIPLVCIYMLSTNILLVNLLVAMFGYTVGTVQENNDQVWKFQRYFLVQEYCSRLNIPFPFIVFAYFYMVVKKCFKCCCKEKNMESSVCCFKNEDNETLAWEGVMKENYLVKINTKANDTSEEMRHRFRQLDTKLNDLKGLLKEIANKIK

reduction of WS‐12 evoked inward current (1 μM compound, 1 μM WS-12, holding potential −60 mV): ≥ 75%
Schild plot slope (WS12 vs compound 23 at 0.02, 0.08, 0.1, 0.5 μM): 1.003 and 1.0
reversibility of blockade upon washout (WS-12-evoked current recovered after washout): reversible
mechanism of channel blockade (WS-12 dose-response shift and Schild plot): competitive
Hill coefficient of hTRPM8 current blockade (patch-clamp dose-response, −60 mV): 1
IC50 (patch-clamp, WS-12 evoked current, −60 mV, N = 3, n = 10, read-out: IC50 of hTRPM8 current blockade): 80 ± 70 nM
voltage dependency of channel blockade (voltage steps −120 to 120 mV, 0.08 μM compound 23, 10 μM AMTB): not voltage dependent
Structure (SMILES): O=C(COC(=O)c1ccccc1-c1ccccc1)NC12CC3CC(CC(C3)C1)C2 [Compound 23, 2‐((3S,5S,7S)‐adamantan‐1‐ylamino)‐2‐oxoethyl [1,1′‐biphenyl]‐2‐carboxylate]
